Data taken from publication PMC12005787, “Synthetic Lethality of SHP2 and XIAP Suppresses Proliferation and Metastasis in KRAS‐mutant Nonsmall Cell Lung Cancer” (Advanced Science, 2025).
Like-named read-outs stand apart in the source and are kept apart here. *1 amine or outer side, *2 acyl side, *3 side chain or, on linkers, in order; H or OH if unused. Where a SMILES comes first, the peptide text is derived from it. Bridges are numbered along the chain shown (N, C = ends). Roman numbers before positions name the chains, in order. [ ]: non-standard residue; d: D form. Hexamethylenediamine = C(CCCN[*:2])CCN[*:1]; Dip = N[C@H](C(=O)O)C(c1ccccc1)c1ccccc1; Chg = N[C@H](C(=O)O)C1CCCCC1; NMeA = CN[C@@H](C)C(=O)O

What was measured:
SHP2 = target: T1, SHP2 (Homo sapiens, UniProt Q06124); assay: Cellular thermal shift assay (CETSA); format: binding; details: NCI‐H2122 cell lysate
T1 construct: endogenous in cells; host or cells: NCI-H2122
T1 sequence (Q06124 1-593): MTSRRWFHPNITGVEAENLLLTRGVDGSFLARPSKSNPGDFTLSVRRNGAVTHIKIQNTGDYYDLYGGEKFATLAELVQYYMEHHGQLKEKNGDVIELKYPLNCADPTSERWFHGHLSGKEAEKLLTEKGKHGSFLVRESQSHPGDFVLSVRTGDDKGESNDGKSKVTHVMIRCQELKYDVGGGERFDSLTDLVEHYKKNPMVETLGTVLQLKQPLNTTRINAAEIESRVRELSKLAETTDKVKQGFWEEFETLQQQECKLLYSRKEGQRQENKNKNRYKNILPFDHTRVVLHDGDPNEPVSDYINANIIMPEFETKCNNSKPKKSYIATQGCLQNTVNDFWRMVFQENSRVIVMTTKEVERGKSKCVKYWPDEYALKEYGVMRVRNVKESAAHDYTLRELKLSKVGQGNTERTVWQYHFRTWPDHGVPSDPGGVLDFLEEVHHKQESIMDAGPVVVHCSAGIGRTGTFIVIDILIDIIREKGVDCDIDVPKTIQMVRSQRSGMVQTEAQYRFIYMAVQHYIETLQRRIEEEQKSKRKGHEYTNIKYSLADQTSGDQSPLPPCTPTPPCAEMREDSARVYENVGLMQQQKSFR
Procedure: NCI‐H2122 cells were harvested and resuspended with pre‐cooled PBS containing 1% cocktail, which was then frozen in liquid nitrogen for 5 min and thawed in a water bath at 37 °C for 5 min for three repetitions. The supernatant was collected via centrifugation at 4 °C (15 000 × g, 20 min), divided into two equal portions; one was added with test drugs or various concentrations of embelin, and the other was added with DMSO as control and subsequently incubated at 25 °C for 30 min. All samples were heated at temperatures ranging from 52–70 °C for 3 min, and subsequently in an ice bath for 3 min and collected by centrifugation at 4 °C (15 000 × g, 20 min), and added with protein sampling buffer at 100 °C for 5 min, followed by analysis of protein stability using western blotting.

A549 and NCI‐H2122 cells = assay: Cell proliferation in monolayer culture (CCK-8); format: cell-based, human
Procedure: For the adherent cell viability assay, cells in the logarithmic growth phase were seeded in 96-well culture plates at a density of 5×103 well-1 and incubated overnight. Diluted compounds or DMSO were added, or specific treatments were incubated at 37 °C and 5% CO2 for 24 h or 48 h. Cell viability was determined using CCK-8 or CellLightTM Cell Viability Assay Kit, according to the manufacturer's protocol. The luminescence signals of the treated samples were normalized to those of the DMSO group. […]
Figure S7. Targeting SHP2 and XIAP produces a synthetic lethal effect. (A) Effects of NSC-87877 on cell viability of A549 and NCI-H2122 cells after 24 and 48 h were determined using the CCK-8. Bars, ± SEM. The curves were plotted using a variable slope (four-parameter) non-linear fit. (B, E, F, and I) Effects of Na3VO4 (B), birinapant (E), BV-6 (F), and LCL161 (I) on cell viability of human NCI-H2122 cells at 48 h were determined using the CCK-8. *p < 0.05, **p < 0.01 and ***p < 0.001 compared to control group (unpaired two-tailed Student’s t-test).(C, G) Effects of SHP099 (C) and GDC-0152 (G) on cell viability after 24 and 48 h were determined using the CCK-8. Bars, ± SEM. The curves were plotted using a variable slope (four-parameter) non-linear fit.(D, H) Effects of SHP099 (D) and GDC-0152 (H) on cell viability were determined after 48 h using intracellular ATP chemiluminescence. **p < 0.01 and ***p < 0.001 compared to control group (unpaired two-tailed Student’s t-test).(J) Effects of SHP099 and GDC-0152 separately and in combination, and the effect of embelin for 24 h on the cell viability were assessed using intracellular ATP […]
tailed Student’s t-test).(K) Effects of SHP099 and GDC-0152 separately and in combination with […] on the cell viability of human KRAS-WT and -mutant cells were assessed using a colony formation assay. (L, M) A549 and NCI-H2122 cells were instantaneously transfected with siPTPN11 and siXIAP separately and together for 24 h under

[1] = system: NCI-H2122, A549, and NCI-H1944 cells; assay: Cell senescence β-galactosidase staining; format: cell-based, human; details: NCI‐H2122 cells; candidate drugs 10 μM
Procedure: Cell senescence β-galactosidase staining
NCI-H2122, A549, and NCI-H1944 cells in the logarithmic growth phase were seeded into 48-well plates and cultured overnight. The supernatant was aspirated and fresh serum-free (0%), low-serum (3%), or regular serum (10%) medium with different drugs was added for 48 h. When the supernatant was discarded, β-galactosidase staining fixation fluid were added for 15 min and β-galactosidase staining solution were imported overnight at 37 ℃.
Finally, the staining results were recorded using an inverted microscope.

ΔSHP2 = target: T2, ΔSHP2 (Homo sapiens, UniProt Q06124); assay: PTPs activity assay (DiFMUP); format: biochemical
T2 construct: His‐ΔSHP2, encompassing the peptide from amino acids 205–593 retaining PTP activity; His; made in house; host or cells: E. coli
T2 sequence (Q06124 205-593): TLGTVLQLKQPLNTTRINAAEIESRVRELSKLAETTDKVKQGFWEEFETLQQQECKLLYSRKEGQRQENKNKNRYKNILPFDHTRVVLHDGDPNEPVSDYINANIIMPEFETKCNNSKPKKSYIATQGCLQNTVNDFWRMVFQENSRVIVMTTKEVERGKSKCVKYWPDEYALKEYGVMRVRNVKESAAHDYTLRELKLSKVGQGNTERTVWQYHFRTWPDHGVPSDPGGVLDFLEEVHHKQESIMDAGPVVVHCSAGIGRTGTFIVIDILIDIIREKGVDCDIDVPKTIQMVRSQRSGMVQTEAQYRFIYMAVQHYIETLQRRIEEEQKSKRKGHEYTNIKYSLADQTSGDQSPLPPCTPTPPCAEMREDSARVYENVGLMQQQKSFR
Procedure: (§1) Catalytic activity screening methods for PTPs using candidate compounds were performed as previously described.^[ [77] ^] In brief, soluble fusion PTP proteins, His‐ΔSHP2, encompassing the peptide from amino acids 205–593 retaining PTP activity, His‐ΔSHP2^K325A, His‐ΔSHP1, encompassing the peptide from amino acids 202–595 retaining PTP activity, His‐PTP1B, His‐HePTP, His‐VHR, and His‐TCPTP were cloned, expressed, and purified in E. coli. After determining protein concentration using bicinchoninic acid (BCA) assay kit, 1 µg fusion protein, 10 µM library compound were added in 100 µL reaction mixture (55 mM 4‐(2‐hydroxyethyl)‐1‐piperazineethanesulfonic acid [HEPES], 100 mM sodium chloride [NaCl], 0.5 mM ethylenediaminetetraacetic acid [EDTA], 1 mM dithiothreitol [DTT], 0.01% Triton X‐100, 0.002% bovine serum albumin [BSA], and 0.1% dimethyl sulfoxide [DMSO]) and incubated at 37 °C for 30 min in the dark, with Na3VO4 as positive control. The detection substrate DiFMUP (50 µM) was promptly added to each reaction and functioned at 37 °C for 30 min in the dark. The fluorescence intensity was then measured using Multimode Plate Reader (λa = 358 nm, λe = 455 nm, PerkinElmer, USA).

VHR = target: T3, VHR (Homo sapiens, UniProt P51452); assay: PTPs activity assay (DiFMUP); format: biochemical
T3 construct: His; made in house; host or cells: E. coli
T3 sequence (P51452 whole entry): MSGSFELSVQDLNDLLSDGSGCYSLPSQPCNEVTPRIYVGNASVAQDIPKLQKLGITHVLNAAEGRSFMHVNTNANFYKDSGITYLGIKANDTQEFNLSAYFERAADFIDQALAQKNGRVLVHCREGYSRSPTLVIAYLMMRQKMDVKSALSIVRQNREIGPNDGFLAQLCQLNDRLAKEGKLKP
Procedure: as §1

ΔSHP1 = target: T4, ΔSHP1 (Homo sapiens, UniProt P29350); assay: PTPs activity assay (DiFMUP); format: biochemical
T4 construct: His‐ΔSHP1, encompassing the peptide from amino acids 202–595 retaining PTP activity; His; made in house; host or cells: E. coli
T4 sequence (P29350 202-595, stated change not applied): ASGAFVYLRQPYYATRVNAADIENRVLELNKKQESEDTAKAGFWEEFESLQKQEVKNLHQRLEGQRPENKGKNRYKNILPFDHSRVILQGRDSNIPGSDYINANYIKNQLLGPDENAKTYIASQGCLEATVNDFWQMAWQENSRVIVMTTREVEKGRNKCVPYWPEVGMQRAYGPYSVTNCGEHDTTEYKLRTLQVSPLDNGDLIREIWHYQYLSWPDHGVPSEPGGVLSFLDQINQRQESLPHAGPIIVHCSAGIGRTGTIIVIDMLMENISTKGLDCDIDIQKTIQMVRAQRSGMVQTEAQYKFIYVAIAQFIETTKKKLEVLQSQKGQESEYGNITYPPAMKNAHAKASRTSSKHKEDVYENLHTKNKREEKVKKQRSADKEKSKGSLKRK
Procedure: as §1

HePTP = target: T5, HePTP (Homo sapiens, UniProt P35236); assay: PTPs activity assay (DiFMUP); format: biochemical
T5 construct: His; made in house; host or cells: E. coli
T5 sequence (P35236 1-360): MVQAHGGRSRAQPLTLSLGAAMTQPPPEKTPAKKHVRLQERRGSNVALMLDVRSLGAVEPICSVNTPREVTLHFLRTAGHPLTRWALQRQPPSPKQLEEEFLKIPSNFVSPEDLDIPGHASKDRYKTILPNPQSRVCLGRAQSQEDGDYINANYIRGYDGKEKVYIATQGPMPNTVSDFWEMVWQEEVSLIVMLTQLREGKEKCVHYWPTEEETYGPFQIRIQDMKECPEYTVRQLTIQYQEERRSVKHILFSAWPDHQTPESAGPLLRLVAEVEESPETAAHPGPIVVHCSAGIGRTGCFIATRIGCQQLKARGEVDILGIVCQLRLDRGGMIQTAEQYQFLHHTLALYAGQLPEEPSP
Procedure: as §1

TCPTP = target: T6, TCPTP (Homo sapiens, UniProt P17706); assay: PTPs activity assay (DiFMUP); format: biochemical
T6 construct: His; made in house; host or cells: E. coli
T6 sequence (P17706 1-415): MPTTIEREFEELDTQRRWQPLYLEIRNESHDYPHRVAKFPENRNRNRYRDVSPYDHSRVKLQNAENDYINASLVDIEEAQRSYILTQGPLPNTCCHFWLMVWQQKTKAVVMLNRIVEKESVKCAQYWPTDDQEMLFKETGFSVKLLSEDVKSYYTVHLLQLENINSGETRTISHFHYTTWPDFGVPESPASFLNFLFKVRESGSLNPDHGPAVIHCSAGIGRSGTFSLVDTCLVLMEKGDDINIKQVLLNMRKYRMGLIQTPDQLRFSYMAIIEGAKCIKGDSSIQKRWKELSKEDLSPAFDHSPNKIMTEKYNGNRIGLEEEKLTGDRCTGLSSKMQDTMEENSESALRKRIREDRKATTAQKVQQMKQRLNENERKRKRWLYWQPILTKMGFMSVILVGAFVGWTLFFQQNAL
Procedure: as §1

PTP1B = target: T7, PTP1B (Homo sapiens, UniProt P18031); assay: PTPs activity assay (DiFMUP); format: biochemical
T7 construct: His; made in house; host or cells: E. coli
T7 sequence (P18031 1-435): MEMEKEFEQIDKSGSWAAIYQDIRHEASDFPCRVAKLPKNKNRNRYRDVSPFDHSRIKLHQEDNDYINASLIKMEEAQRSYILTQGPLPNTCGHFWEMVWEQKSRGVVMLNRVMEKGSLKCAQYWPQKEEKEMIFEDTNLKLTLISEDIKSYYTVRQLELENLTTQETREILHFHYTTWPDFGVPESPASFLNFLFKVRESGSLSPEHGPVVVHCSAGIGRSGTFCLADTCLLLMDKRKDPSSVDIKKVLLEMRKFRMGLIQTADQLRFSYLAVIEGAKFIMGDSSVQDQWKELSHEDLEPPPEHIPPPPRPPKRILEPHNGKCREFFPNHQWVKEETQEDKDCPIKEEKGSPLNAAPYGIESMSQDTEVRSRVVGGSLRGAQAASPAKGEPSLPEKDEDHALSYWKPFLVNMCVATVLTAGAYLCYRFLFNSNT
Procedure: as §1

effect on SHP2 protein stability (CETSA) (SHP2)	IC50 (PTP1B; read-out: IC50 of PTPs PTP1B)	Structure (SMILES)	effect on cell proliferation in monolayer cell culture mode (A549 and NCI‐H2122 cells)	induction of cell senescence [1]	IC50 (ΔSHP2)	IC50 (VHR)	IC50 (ΔSHP1)	IC50 (HePTP)	IC50 (TCPTP)	IC50 (PTP1B)
–	> 200 µM	CC1(C)CCC2=C(O1)c1ccccc1C(=O)C2=O [S7261, β‐Lapachone]	–	–	34.2 µM	> 200 µM	> 200 µM	> 200 µM	> 200 µM	–
–	16.6 µM	CC1(C)CCC(CN2CCN(c3ccc(C(=O)NS(=O)(=O)c4ccc(NCC5CCOCC5)c([N+](=O)[O-])c4)c(Oc4cnc5[nH]ccc5c4)c3)CC2)=C(c2ccc(Cl)cc2)C1 [S8048, Venetoclax]	–	–	2.07 µM	36.9 µM	81.3 µM	20 µM	9.43 µM	–

Second part, the compound before the results:

Structure (SMILES)	effect on SHP2 protein stability (CETSA) (SHP2)	IC50 (PTP1B; read-out: IC50 of PTPs PTP1B)	effect on cell proliferation in monolayer cell culture mode (A549 and NCI‐H2122 cells)	induction of cell senescence [1]	IC50 (ΔSHP2)	IC50 (VHR)	IC50 (ΔSHP1)	IC50 (HePTP)	IC50 (TCPTP)	IC50 (PTP1B)
CN[C@@H](C)C(=O)N[C@H](C(=O)N1CCC[C@H]1C(=O)N[C@H](C(=O)NCCCCCCNC(=O)[C@@H](NC(=O)[C@@H]1CCCN1C(=O)[C@@H](NC(=O)[C@H](C)NC)C1CCCCC1)C(c1ccccc1)c1ccccc1)C(c1ccccc1)c1ccccc1)C1CCCCC1 [BV‐6] (I: H-[NMeA][Chg]P[Dip] / II: H-[NMeA][Chg]P[Dip]; linker I:C-II:C via Hexamethylenediamine)	did not affect SHP2 protein stability	–	partially inhibited cell proliferation	induced cellular senescence	–	–	–	–	–	–
CC[C@H](NC(=O)[C@H](C)NC)C(=O)N1C[C@@H](O)C[C@H]1Cc1c(-c2[nH]c3cc(F)ccc3c2C[C@@H]2C[C@H](O)CN2C(=O)[C@H](CC)NC(=O)[C@H](C)NC)[nH]c2cc(F)ccc12 [Birinapant]	did not affect SHP2 protein stability	–	almost no effect	induced cellular senescence	–	–	–	–	–	–
CN[C@@H](C)C(=O)N[C@H](C(=O)N1CCC[C@H]1c1nc(C(=O)c2ccc(F)cc2)cs1)C1CCCCC1 [LCL‐161]	did not affect SHP2 protein stability	–	almost no effect	induced cellular senescence	–	–	–	–	–	–
CC(C)=CCC[C@]1(C)C=Cc2c(O)c3c(c(CC=C(C)C)c2O1)O[C@]12C(=C[C@@H]4C[C@H]1C(C)(C)O[C@@]2(C/C=C(/C)C(=O)O)C4=O)C3=O [S2448, Gambogic acid]	–	–	–	–	11.8 µM	123 µM	> 200 µM	> 200 µM	294 µM	30.3 µM
Cc1cc2c(C(C)C)c(O)c(O)c(C=O)c2c(O)c1-c1c(C)cc2c(C(C)C)c(O)c(O)c(C=O)c2c1O [S2812, AT101]	–	77.6 µM	–	–	39.5 µM	141 µM	197 µM	135 µM	197 µM	–
